Columns and labels:
Escherichia coli = assay: Activation of recombinant Escherichia coli HslV expressed in Escherichia coli BL21( DE3) cells using Z-GGL-AMC as substrate by fluorescence analysis
[1] = Activation of recombinant Escherichia coli HslU C-tail expressed in Escherichia coli BL21( DE3) cells using Z-GGL-AMC as substrate by fluorescence analysis

SMILES | ED50 (Escherichia coli) [nM] | ED50 [1] [nM]
O=C(Cn1c(-c2ccccn2)nc2ccccc21)c1ccc([N+](=O)[O-])cc1 | 600 | 2600
O=C(N/N=C/c1cc(=O)c2ccccc2o1)c1ccccc1 | 1300 | 2600
O=c1c2ccccc2nc(-c2ccc([N+](=O)[O-])cc2)n1/N=C/c1c(O)ccc2ccccc12 | 900 | 2600
O=C(Cn1c(-c2ccccn2)nc2ccccc21)c1ccc(O)c(O)c1 | 600 | 2600

Source: ChEMBL document CHEMBL2163308, “Small molecule activators of proteasome-related HslV peptidase” (Bioorg Med Chem Lett, 2012)
